Experimental data from patent US8450053B2, “ZAP-70 as predictor and modulator of effector function of T cells” (University of Maryland, Baltimore, priority 2007, dated 2013).
Entries after “also recorded” stand apart in the source; their conditions may differ.

Experiments:
Assay type in all cases: cell-based, mouse
[1] = test system: naive and memory CD4 T cells; assay: Viability of naive and memory CD4 T cells cultured with cycloheximide; conditions: after 24 hrs in cycloheximide, average
Method: (§1) Naive or memory CD4 T cells (1×10^6) were cultured with APC (3×10^6) in total volume of 1 ml of Clicks medium containing 800 ng/ml OVA peptide for time points of 0-24 hrs along with inhibitors cycloheximide (Sigma, 50 μg/ml) or piceatannol (Calbiochem, 12 μM of 3,4,3′,5′-tetrahydroxy-trans-stilbene). Solvent alone served as a vehicle control.

[2] = test system: naive CD4 T cells; assay: Inhibitor assay: OVA-specific naive CD4 T cells stimulated with OVA/APC, flow cytometry; conditions: cycloheximide 50 μg/ml
Method: (§2) Intracellular cytokine staining (ICS) analysis of signaling intermediates and cytokines was performed as previously described (Bingaman et al., 2005, supra; Ahmadzadeh and Farber, 2002, supra). Briefly, naive or memory CD4 T cells were cultured with APC and 800 ng/ml OVA peptide for time points of 0-48 hrs, and monensin (Golgistop™, BD Pharmingen) was added 6 hrs prior to harvesting. Cells were stained with antibodies for surface markers CD4, CD25, CD44, KJ1-26, fixed (Cytofix™ buffer, BD Pharmingen), permeabilized, and stained intracellularly with fluorochrome-conjugated antibodies to cytokines, signaling intermediates, and analyzed by flow cytometry.
(§3) Six-color flow cytometry was performed on BD LSR II flow cytometer (BD Biosciences) using FITC, PE, PERCP and PE-Cy7, allophycocyanin-Cy7, and allophycocyanin as fluorochromes (BD Biosciences, e-biosciences, Invitrogen/caltag). CD4 T cells stained with single color fluorochromes were used for compensation, background values were established with isotype controls, and data were analyzed using BD FACSDiva™ software (BD Biosciences). Fluorochrome-conjugated antibodies directed against CD4 (clone GK1.5), CD25 (PC61), CD69 (H1.2F3), CD62L (MEL-14), CD44 (IM7), CD3ε (145-2C11), IFN-γ (XMG1.2), phospho-ZAP-70 (17-P), phospho-PLC-γ (27/PLC), and phospho-Stat1 (clone 4a) were all purchased from BD-Pharmingen (San Diego, Calif.). PE- and APC-conjugated KJ1-26 specific for the DO11.10 TCR clonotype were purchased from CALTAG Laboratories (Burlingame, Calif.). PE- and FITC-conjugated ZAP-70 (1E7.2) was obtained from Invitrogen (Carlsbad, Calif.), and FITC-conjugated phospho-tyrosine (PT-66) from Sigma (St. Louis, Mo.), and phospho-p38 (28B10) and phospho-erk1/2 (E10) were purchased from Cell signaling technology, Inc. (Danvers, Mass.). For most analyses, a given marker was analyzed using several different fluorochromes to eliminate errors based on compensation.
as §1

[3] = test system: memory CD4 T cells; assay: Inhibitor assay: OVA-specific memory CD4 T cells stimulated with OVA/APC, flow cytometry and intracellular cytokine staining
Method: as §2, §3, §1

[4] = test system: ZAP-70; assay: siRNA-mediated knockdown of ZAP-70 in OVA-specific memory CD4 T cells
Method: Cy3-labeled ZAP-70 specific siRNA Sense (5′→3′)/Cy3/GGCGGAUGGACUAAUUUACtt (SEQ ID NO: 10); Antisense (5′→3′) GUAAAUUAGUCCAUCCGCCtt (SEQ ID NO:11) or control GAPDH siRNA obtained from Ambion (Austin, Tex.) was delivered at a final concentration of 5 μM into 1.0×10^6 purified resting memory OVA-specific CD4 T cells using the mouse T cell nucleofector kit (Amaxa Inc., Gaithersburg, Md.) according to the manufacturers instructions and similar to the approach previously employed for siRNA transfections in mouse T cells (Sabbagh et al., 2006, Proc. Natl. Acad. Sci. USA 103:18703-18708). Following nucleofection, cell suspensions were cultured in media in 24 well plates with APC (2×10^6/well) and OVA-peptide (800 ng/ml), followed by incubation at 37° C. for 18 hrs. After 18 hrs, Golgistop (BD Pharmingen, USA) (0.66 μl/ml of culture) was added, cells were incubated for an additional 6 hrs, and subsequently staining for surface expression of CD4, KJ1-26 and CD25, and intracellular expression of ZAP-70 and IFN-γ as above.

[5] = naive CD4 T cells, +/-antigen, 6 hrs
[6] = naive T cells, antigenic stimulation 24 hrs
[7] = antigen-stimulated memory CD4 T cells, 24 hrs, cycloheximide 50 μg/ml
[8] = memory CD4 T cells, +/-antigen, 6 hrs, cycloheximide 50 μg/ml
[9] = memory CD4 T cells, OVA/APC 6 hrs, piceatannol 12 μM

For `C[C@@H]1C[C@@H]([C@H](O)CC2CC(=O)NC(=O)C2)C(=O)[C@@H](C)C1` [cycloheximide], the Viability [1] was 70%, the “increases in total intracellular p-Tyr levels” value ([2]; activated naive CD4 T cells, 24 hrs) was “significantly inhibited” and the intracellular tyrosine phosphorylation [2, 5] was “did not affect”. The “resting state level of ZAP-70” value [2, 5] was “did not affect”, the “up-regulation of CD25 expression” value [2, 6] was “completely inhibited” and the “up-regulation of ZAP-70 expression” value [2, 6] was “completely inhibited”. For the same molecule, the CD25 up-regulation [3, 7] was “inhibited”, the “memory CD4 T cells maintaining high level of ZAP-70 expression” value [3, 7] was over 50% and the intracellular tyrosine phosphorylation [3, 8] was “did not affect”. The “resting state level of ZAP-70” value [3, 8] was “did not affect” and the p-Tyr levels ([3]; memory T cells, 24 hrs, cycloheximide 50 μg/ml) was “did not affect”.
In the case of `Oc1cc(O)cc(/C=C/c2ccc(O)c(O)c2)c1` [piceatannol, 3,4,3′,5′-tetrahydroxy-trans-stilbene], the “ZAP-70 expression, dose response” value ([3]; antigen-stimulated memory CD4 T cells, +/-OVA/APC, six hrs) was “reduced ZAP-70 expression in a dose-dependent fashion”, the ZAP-70 expression [3, 9] was “specifically reduced” and the “basal level of CD25” value [3, 9] was “without affecting”. The “rapid IFN-γ production” value [3, 9] was “striking inhibition; also recorded: completely blocked” and the “total p-Tyr content” value [3, 9] was “without affecting”.
“ZAP-70 specific siRNA: Cy3-labeled ZAP-70 specific siRNA, sense GGCGGAUGGACUAAUUUACtt (SEQ ID NO: 10), antisense GUAAAUUAGUCCAUCCGCCtt (SEQ ID NO:11) (sense GGCGGAUGGACUAAUUUACTT; antisense GUAAAUUAGUCCAUCCGCCTT; Cy3 label, further chemistry not given here)” was tested, and the “early IFN-γ production” value ([4]; memory CD4 T cells, ZAP-70 downmodulated using siRNA) was “inhibited”, the “reduction in the proportion of memory T cells producing IFN-γ” value ([4]; siRNA 5 μM, OVA/APC 24 hrs, vs siRNA- and GAPDH siRNA transfectants) was 50% and the “ZAP-70 expression (MFI)” value ([4]; silenced (siRNA+) vs unsilenced (siRNA-) memory CD4 T cells, siRNA 5 μM, OVA/APC 24 hrs) was “reduction in ZAP-70 expression”.
